In experiment [1] the target is Mitogen-activated protein kinase 1 (Homo sapiens, UniProt P28482).
Experiment [2] concerns the target Serine/threonine-protein kinase SIK3 (Homo sapiens, UniProt Q9Y2K2).
A further experiment has as its target T1, TGF-beta receptor type-1 (Homo sapiens, UniProt P36897).
T1 sequence (P36897 whole entry): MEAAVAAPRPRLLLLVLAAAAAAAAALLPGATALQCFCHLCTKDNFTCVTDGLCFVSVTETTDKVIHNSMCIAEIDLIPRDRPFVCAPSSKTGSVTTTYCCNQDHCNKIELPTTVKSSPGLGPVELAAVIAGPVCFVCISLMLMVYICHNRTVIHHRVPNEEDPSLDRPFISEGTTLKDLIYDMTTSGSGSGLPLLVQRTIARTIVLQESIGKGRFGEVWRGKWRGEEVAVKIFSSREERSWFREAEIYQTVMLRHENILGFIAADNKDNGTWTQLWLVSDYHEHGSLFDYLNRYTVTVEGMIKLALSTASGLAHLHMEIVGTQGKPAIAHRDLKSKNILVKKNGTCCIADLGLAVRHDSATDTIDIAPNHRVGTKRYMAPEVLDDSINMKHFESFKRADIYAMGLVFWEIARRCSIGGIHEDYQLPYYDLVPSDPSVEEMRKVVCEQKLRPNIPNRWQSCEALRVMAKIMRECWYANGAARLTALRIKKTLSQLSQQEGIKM

The target of experiment [3] is T2, Interleukin-1 receptor-associated kinase 4 (Homo sapiens, UniProt Q9NWZ3).
T2 sequence (Q9NWZ3 whole entry): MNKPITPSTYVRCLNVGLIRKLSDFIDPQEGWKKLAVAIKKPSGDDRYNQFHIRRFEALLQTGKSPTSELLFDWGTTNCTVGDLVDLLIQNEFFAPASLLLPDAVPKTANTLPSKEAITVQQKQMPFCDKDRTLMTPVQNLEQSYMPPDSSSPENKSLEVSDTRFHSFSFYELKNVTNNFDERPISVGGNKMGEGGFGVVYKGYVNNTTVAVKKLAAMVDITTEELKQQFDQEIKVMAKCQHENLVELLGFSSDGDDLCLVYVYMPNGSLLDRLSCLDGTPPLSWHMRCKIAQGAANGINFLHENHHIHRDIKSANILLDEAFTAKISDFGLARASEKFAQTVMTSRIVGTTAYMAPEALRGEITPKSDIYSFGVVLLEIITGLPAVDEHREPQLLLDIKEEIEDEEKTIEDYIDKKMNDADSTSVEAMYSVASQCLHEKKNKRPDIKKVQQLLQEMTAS

For experiment [4], the target named is Tyrosine-protein kinase Fyn (Homo sapiens, UniProt P06241).
Chain of Tyrosine-protein kinase Fyn (P06241 whole entry): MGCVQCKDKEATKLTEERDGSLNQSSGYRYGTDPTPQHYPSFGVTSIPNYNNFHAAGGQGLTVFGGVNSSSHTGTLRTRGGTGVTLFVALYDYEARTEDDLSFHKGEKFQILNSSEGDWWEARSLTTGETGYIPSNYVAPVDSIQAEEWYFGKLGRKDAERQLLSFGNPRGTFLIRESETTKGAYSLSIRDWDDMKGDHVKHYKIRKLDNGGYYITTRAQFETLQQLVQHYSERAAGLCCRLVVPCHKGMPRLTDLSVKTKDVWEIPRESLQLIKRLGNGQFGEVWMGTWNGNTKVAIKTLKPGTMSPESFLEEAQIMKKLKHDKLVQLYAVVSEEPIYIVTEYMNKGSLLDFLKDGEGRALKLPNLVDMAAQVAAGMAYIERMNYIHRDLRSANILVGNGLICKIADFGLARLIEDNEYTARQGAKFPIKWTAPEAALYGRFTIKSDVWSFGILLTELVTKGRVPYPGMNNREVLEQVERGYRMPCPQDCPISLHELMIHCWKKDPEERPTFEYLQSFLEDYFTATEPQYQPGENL
For experiment [5], the target named is Serine/threonine-protein kinase MRCK alpha (Homo sapiens, UniProt Q5VT25).
Chain of Serine/threonine-protein kinase MRCK alpha (Q5VT25 whole entry): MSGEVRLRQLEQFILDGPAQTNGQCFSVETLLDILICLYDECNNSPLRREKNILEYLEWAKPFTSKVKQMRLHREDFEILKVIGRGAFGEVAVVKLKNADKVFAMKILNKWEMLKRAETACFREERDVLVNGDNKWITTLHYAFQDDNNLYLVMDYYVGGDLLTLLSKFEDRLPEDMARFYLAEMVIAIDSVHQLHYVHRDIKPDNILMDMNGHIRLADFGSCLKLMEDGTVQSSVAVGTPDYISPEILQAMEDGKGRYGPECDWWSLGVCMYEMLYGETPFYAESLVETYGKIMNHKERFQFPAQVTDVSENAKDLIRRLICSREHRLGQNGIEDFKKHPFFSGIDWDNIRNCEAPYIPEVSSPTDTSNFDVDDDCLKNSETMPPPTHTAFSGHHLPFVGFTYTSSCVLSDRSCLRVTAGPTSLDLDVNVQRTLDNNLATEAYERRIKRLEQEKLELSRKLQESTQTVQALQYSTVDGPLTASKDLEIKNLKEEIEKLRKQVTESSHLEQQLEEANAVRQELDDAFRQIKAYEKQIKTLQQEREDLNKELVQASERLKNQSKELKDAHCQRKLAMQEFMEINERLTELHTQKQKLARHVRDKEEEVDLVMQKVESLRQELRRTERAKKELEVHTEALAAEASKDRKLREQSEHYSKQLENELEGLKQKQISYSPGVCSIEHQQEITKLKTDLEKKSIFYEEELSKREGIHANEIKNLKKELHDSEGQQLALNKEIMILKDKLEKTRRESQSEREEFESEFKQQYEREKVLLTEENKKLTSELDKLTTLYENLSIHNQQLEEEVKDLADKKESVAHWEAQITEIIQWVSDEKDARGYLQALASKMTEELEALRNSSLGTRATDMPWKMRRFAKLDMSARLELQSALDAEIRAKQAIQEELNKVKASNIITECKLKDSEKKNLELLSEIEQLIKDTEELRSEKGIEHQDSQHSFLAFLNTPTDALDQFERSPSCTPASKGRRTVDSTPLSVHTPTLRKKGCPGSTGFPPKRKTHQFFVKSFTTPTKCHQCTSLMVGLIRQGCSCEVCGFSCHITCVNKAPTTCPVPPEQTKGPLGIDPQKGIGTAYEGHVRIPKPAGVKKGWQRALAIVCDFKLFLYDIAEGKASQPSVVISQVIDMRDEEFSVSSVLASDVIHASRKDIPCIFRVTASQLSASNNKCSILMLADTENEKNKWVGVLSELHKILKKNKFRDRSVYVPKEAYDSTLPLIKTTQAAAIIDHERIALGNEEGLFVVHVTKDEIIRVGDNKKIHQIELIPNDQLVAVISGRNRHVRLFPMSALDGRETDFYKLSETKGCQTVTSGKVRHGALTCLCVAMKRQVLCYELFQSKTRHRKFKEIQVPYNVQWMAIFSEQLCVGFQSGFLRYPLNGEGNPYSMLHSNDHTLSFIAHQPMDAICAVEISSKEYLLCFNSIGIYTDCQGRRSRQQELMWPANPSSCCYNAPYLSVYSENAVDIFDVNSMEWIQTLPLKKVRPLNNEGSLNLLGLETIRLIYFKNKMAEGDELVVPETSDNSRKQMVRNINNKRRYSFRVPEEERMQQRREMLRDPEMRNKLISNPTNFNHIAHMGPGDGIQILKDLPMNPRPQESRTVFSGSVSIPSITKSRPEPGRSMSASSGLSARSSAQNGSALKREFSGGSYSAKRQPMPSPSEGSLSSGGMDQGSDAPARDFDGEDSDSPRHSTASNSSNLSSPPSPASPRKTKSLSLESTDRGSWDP
Experiment [6] concerns the target High affinity nerve growth factor receptor (Homo sapiens, UniProt P04629).
The target of experiment [7] is T3, Interleukin-1 receptor-associated kinase 3 (Homo sapiens, UniProt Q9Y616).
T3 sequence (Q9Y616 whole entry): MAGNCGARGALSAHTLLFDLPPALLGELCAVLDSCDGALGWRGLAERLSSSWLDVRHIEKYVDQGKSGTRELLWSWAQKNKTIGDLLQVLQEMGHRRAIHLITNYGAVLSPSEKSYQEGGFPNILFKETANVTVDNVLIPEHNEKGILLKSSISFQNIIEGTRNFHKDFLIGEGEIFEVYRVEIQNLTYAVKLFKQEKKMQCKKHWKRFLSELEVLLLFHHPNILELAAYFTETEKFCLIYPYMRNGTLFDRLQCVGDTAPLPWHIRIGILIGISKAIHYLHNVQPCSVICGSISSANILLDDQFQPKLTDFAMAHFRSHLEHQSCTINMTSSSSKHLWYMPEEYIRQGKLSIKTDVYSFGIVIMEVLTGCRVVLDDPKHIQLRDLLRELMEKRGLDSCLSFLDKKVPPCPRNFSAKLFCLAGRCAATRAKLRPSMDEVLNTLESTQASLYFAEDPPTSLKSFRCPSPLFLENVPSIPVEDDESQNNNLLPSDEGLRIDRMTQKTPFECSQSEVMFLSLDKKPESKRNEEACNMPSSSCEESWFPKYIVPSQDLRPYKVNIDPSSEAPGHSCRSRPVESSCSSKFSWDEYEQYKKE

In experiment [8] the target is Mitogen-activated protein kinase 9 (Homo sapiens, UniProt P45984).
Chain of Mitogen-activated protein kinase 9 (P45984 whole entry): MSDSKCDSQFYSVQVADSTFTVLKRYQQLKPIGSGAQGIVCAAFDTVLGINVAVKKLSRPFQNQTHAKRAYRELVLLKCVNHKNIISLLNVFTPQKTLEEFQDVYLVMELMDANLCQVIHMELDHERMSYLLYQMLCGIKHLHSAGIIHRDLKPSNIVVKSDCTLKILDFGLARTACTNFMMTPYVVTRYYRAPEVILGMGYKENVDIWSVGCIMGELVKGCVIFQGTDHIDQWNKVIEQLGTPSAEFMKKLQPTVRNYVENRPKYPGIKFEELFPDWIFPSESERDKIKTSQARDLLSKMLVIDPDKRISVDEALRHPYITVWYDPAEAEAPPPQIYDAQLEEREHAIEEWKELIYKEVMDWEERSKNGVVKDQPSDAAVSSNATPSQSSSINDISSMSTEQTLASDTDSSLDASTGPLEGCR
Experiment [9] has as its target Mitogen-activated protein kinase 14 (Homo sapiens, UniProt Q16539).
A further experiment addresses GTP-binding protein 4 (Homo sapiens, UniProt Q9BZE4).

For orientation: Kd means the constant that tells how readily two partners part at equilibrium.

Where a name gives a salt, the structure may show the parent alone. The source made the active and inactive calls. Cut-off read from the data, not from the text of the source, for most assays here: actives have a measured Kd and inactives only a lower limit. Bounds are passed on as bounds.
Note: in the data inactive means no Kd found up to 30 µM.

Chain of Serine/threonine-protein kinase SIK3 (Q9Y2K2 whole entry): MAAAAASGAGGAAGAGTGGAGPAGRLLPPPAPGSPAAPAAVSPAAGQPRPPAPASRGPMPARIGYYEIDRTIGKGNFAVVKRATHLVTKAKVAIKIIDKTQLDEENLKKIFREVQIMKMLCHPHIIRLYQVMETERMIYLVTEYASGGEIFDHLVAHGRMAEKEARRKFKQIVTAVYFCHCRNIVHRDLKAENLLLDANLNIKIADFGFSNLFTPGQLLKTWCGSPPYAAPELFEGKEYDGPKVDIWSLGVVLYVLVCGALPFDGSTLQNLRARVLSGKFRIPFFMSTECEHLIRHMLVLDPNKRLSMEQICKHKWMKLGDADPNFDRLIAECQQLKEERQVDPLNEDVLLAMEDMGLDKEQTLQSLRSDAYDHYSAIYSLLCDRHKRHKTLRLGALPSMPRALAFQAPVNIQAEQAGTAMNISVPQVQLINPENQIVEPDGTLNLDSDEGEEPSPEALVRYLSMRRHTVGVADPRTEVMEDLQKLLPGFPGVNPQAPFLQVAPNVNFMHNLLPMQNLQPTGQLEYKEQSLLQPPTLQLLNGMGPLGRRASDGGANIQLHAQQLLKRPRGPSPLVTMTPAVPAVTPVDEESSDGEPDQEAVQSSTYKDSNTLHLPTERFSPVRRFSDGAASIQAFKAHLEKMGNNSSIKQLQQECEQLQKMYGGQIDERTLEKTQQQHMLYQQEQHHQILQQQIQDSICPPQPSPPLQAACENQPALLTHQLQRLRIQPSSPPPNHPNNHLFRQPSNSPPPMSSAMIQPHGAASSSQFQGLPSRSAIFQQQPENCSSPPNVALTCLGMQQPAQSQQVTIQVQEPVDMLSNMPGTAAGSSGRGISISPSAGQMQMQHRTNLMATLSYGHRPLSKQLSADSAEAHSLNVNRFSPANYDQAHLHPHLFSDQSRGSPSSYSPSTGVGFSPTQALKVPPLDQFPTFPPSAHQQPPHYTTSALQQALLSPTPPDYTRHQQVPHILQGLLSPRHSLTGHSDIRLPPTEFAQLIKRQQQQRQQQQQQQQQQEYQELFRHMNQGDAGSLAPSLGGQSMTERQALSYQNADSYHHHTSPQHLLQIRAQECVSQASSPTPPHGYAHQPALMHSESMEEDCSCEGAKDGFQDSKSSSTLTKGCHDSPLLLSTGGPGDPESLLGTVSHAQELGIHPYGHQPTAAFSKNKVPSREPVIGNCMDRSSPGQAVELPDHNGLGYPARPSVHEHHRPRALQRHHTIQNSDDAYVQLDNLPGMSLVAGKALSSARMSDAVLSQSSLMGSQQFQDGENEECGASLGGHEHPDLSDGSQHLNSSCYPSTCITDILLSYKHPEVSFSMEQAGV
Chain of High affinity nerve growth factor receptor (P04629 whole entry): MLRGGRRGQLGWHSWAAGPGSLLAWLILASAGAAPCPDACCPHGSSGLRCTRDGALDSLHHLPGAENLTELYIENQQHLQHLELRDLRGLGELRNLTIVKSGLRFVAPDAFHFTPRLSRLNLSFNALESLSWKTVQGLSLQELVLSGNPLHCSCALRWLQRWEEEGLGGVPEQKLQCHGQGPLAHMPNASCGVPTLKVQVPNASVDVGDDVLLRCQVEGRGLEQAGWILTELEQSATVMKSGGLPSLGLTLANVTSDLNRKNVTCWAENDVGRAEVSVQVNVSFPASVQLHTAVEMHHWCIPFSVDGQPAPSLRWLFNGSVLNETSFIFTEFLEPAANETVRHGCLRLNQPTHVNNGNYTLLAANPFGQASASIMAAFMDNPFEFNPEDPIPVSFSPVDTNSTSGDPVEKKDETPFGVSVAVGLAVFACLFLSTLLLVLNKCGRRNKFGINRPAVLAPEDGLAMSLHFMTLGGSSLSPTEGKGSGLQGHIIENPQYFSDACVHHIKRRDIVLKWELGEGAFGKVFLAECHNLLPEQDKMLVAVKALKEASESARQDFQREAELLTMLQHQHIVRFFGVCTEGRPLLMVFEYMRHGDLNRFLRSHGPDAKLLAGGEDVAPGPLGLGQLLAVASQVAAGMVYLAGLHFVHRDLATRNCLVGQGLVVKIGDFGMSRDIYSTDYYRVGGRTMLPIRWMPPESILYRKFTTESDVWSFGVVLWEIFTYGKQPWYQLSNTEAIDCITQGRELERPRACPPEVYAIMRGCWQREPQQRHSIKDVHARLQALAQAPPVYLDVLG

Regarding `CCS(=O)(=O)N1CCN(c2ccc(Nc3ncc(C(N)=O)c(NC4CC4)n3)cc2)CC1` [Cerdulatinib Hydrochloride], the Kd in [1] is > 30 µM (inactive); in [2] it was 13.6 µM (active); on TGF-beta receptor type-1, > 30 µM (inactive); in experiment [3], > 30 µM (inactive); in experiment [4] it was > 30 µM (inactive); in [5], > 30 µM (inactive). Further, the Kd in experiment [6] was > 30 µM (inactive); in [7], > 30 µM (inactive); in [8], 1.43 µM (active); in [9] it was > 30 µM (inactive); at GTP-binding protein 4, > 30 µM (inactive).
As for `Cc1nc2cc(-n3ncc(C(=O)c4cc5ccccc5[nH]4)c3N)ccc2[nH]1` [FGFR INHIBITOR DEBIO 1347], the Kd (in experiment [1]; in [2]; at TGF-beta receptor type-1; in [3]; in experiment [4]; in experiment [5]) was > 30 µM (inactive) in each case. For the same molecule, the Kd (in experiment [6]; in experiment [7]; in [8]; in [9]; on GTP-binding protein 4) was > 30 µM (inactive) in each case.
`O=C(Nc1nc2cccc(-c3ccc(CN4CCS(=O)(=O)CC4)cc3)n2n1)C1CC1` [FILGOTINIB]: the Kd (in experiment [1]; in [2]; on TGF-beta receptor type-1; in [3]; in experiment [4]; in experiment [5]) was > 30 µM (inactive) each time. The Kd (in experiment [6]; in experiment [7]; in experiment [8]; in experiment [9]; on GTP-binding protein 4) was > 30 µM (inactive) in each case.
`COc1ccc(S(=O)(=O)N(C(C)=O)c2ccccc2/C=C/c2cc[n+]([O-])cc2)cc1` [HMN-214]: the Kd (in [1]; in experiment [2]; at TGF-beta receptor type-1; in experiment [3]; in [4]; in experiment [5]) was > 30 µM (inactive) each time. For the same molecule, the Kd (in experiment [6]; in experiment [7]; in experiment [8]; in experiment [9]; on GTP-binding protein 4) was > 30 µM (inactive) throughout.
`CNC(=O)c1cccc2cc(Oc3ccnc4cc(OCC5(N)CC5)c(OC)cc34)ccc12` [LUCITANIB]: the Kd (in experiment [1]; in experiment [2]; on TGF-beta receptor type-1; in [3]; in [4]; in experiment [5]) was > 30 µM (inactive) throughout. Besides, the Kd (in experiment [6]; in experiment [7]; in [8]; in experiment [9]; on GTP-binding protein 4) was > 30 µM (inactive) throughout.
Regarding `NC1(c2ccc(-c3nc4ccn5c(=O)[nH]nc5c4cc3-c3ccccc3)cc2)CCC1` [MK-2206], the Kd (in experiment [1]; in experiment [2]; on TGF-beta receptor type-1; in [3]; in experiment [4]; in experiment [5]) was > 30 µM (inactive) each time. In addition, the Kd (in experiment [6]; in experiment [7]; in [8]; in experiment [9]; at GTP-binding protein 4) was > 30 µM (inactive) each time.
For the molecule `CN(C[C@@H]1COCCO1)S(=O)(=O)Nc1ccc2ccc3ncc(-c4cnn(C)c4)cc3c(=O)c2c1` [MK-2461], the Kd in [1] was > 30 µM (inactive); in experiment [2] it was > 30 µM (inactive); at TGF-beta receptor type-1 it was > 30 µM (inactive); in experiment [3], 1.47 µM (active); in experiment [4], > 30 µM (inactive); in experiment [5], > 30 µM (inactive). The Kd was > 30 µM (inactive) in [6]; 0.502 µM (active) in experiment [7]; 1.93 µM (active) in experiment [8]; > 30 µM (inactive) in [9]; > 30 µM (inactive) at GTP-binding protein 4.
Turning to `Cn1cc(-c2cnc3ccc4ccc(CS(=O)(=O)NCc5ccccn5)cc4c(=O)c3c2)cn1` [MK-8033], the Kd (in [1]; in experiment [2]; on TGF-beta receptor type-1; in experiment [3]; in [4]; in [5]) was > 30 µM (inactive) throughout. For the same molecule, the Kd (in experiment [6]; in experiment [7]; in [8]; in [9]; on GTP-binding protein 4) was > 30 µM (inactive) each time.
Turning to `FC(F)(F)c1ccc(/C=C/c2nc(COc3ccc(CCCCn4ccnn4)cc3)co2)cc1` [MUBRITINIB], the Kd (in experiment [1]; in [2]; on TGF-beta receptor type-1; in [3]; in experiment [4]; in experiment [5]) was > 30 µM (inactive) each time. Also, the Kd (in experiment [6]; in experiment [7]; in [8]; in experiment [9]; at GTP-binding protein 4) was > 30 µM (inactive) in each case.
With `COc1ncc(-c2ccc3nccc(-c4ccnnc4)c3c2)cc1NS(=O)(=O)c1ccc(F)cc1F` [OMIPALISIB], the Kd (in experiment [1]; in [2]; on TGF-beta receptor type-1; in experiment [3]; in experiment [4]; in experiment [5]) was > 30 µM (inactive) in each case. For the same molecule, the Kd in experiment [6] is > 30 µM (inactive); in [7], 3.03 µM (active); in experiment [8], > 30 µM (inactive); in experiment [9] it was > 30 µM (inactive); on GTP-binding protein 4, > 30 µM (inactive).
Consider `Cc1nc(Nc2n[nH]c3c2CN(C(=O)N[C@H](CN(C)C)c2ccccc2)C3(C)C)c2sccc2n1` [PF-03758309], for which the Kd is 1.96 µM (active) in [1]; > 30 µM (inactive) in experiment [2]; > 30 µM (inactive) at TGF-beta receptor type-1; > 30 µM (inactive) in experiment [3]; 1.23 µM (active) in experiment [4]; > 30 µM (inactive) in [5]. Also, the Kd was 2.21 µM in [6]; > 30 µM (inactive) in [7]; > 30 µM (inactive) in [8]; > 30 µM (inactive) in experiment [9]; > 30 µM (inactive) on GTP-binding protein 4.
On to `Cc1cnc(NC(=O)Nc2cc(Br)c(C)cc2OC[C@@H]2CNCCO2)cn1` [RABUSERTIB], for which the Kd (in experiment [1]; in experiment [2]; on TGF-beta receptor type-1; in [3]; in [4]; in [5]) was > 30 µM (inactive) throughout. Further, the Kd (in experiment [6]; in experiment [7]; in [8]; in experiment [9]; at GTP-binding protein 4) was > 30 µM (inactive) throughout.
